The IC50 is the concentration needed to halve the response being measured. The low end stands for inhibition by little substance, the high end for a need for much substance.

Molecules are shown by their SMILES. Calls of active or inactive are those of the source. The rule behind the calls is not given here.

The test system of the first assay is Mycobacterium sp. Kind of assay: Antimycobacterial activity against Mycobacterium sp. The class given is functional, organism-based.
Settings: not given
On to `FC(F)(F)c1ccc(-c2nc3ccccc3c3c2[nH]c2ccccc23)cc1`, for which the outcome was inactive.
The same measure, in the same setting: next, `c1ccc(Oc2ccc(-c3nc4ccccc4c4c3[nH]c3ccccc34)cc2)cc1`: “inactive”.
The same measure, in the same setting: under `CCc1ccc(-c2nc3ccccc3c3c2[nH]c2ccccc23)cc1` stands “inactive”; under `CC(C)c1nc2ccccc2c2c1[nH]c1ccccc12`, “inactive”.
Turning to `Brc1ccc(-c2nc3ccccc3c3c2[nH]c2ccccc23)cc1`, the outcome was inactive.
`Cc1cn([C@H]2C[C@H](N=[N+]=[N-])[C@@H](CO)O2)c(=O)[nH]c1=O` [ZIDOVUDINE]: the outcome was inactive.

Tested on in another assay: not listed separately
Put plainly: Cytotoxicity against mouse NIH/3T3 cells after 48 hrs by SRB method. The class given is cell-based. The conditions noted are these: NIH3T3, 48 h.
`FC(F)(F)c1ccc(-c2nc3ccccc3c3c2[nH]c2ccccc23)cc1` yielded a 50% inhibitory concentration (IC50) of 110 µM.
Same read-out and setting: next, `COc1cccc2c1C(=O)c1c(O)c3c(c(O)c1C2=O)C[C@@](O)(C(=O)CO)C[C@@H]3O[C@H]1C[C@H](N)[C@H](O)[C@H](C)O1` [DOXORUBICIN]: 5.91 µM; `c1ccc(Oc2ccc(-c3nc4ccccc4c4c3[nH]c3ccccc34)cc2)cc1`: more than 200 µM; `CCc1ccc(-c2nc3ccccc3c3c2[nH]c2ccccc23)cc1`: 200 µM.
Compound `CC(C)c1nc2ccccc2c2c1[nH]c1ccccc12` showed a 50% inhibitory concentration (IC50) of more than 200 µM.
Regarding `Brc1ccc(-c2nc3ccccc3c3c2[nH]c2ccccc23)cc1`, the IC50 was more than 200 µM.
On the same count and under the same terms, under `Cc1cn([C@H]2C[C@H](N=[N+]=[N-])[C@@H](CO)O2)c(=O)[nH]c1=O` [ZIDOVUDINE] stands more than 200 µM.

The subject of a further assay is HeLa. Put plainly: Cytotoxicity against human HeLa cells after 48 hrs by SRB method. The class given is functional, cell-based.
Settings: not given
(The SRB assay estimates cell density from bound dye.)
The compound `FC(F)(F)c1ccc(-c2nc3ccccc3c3c2[nH]c2ccccc23)cc1` had an IC50 of 20.8 µM. This lies in the double-digit micromolar range.
Same read-out and setting: under `COc1cccc2c1C(=O)c1c(O)c3c(c(O)c1C2=O)C[C@@](O)(C(=O)CO)C[C@@H]3O[C@H]1C[C@H](N)[C@H](O)[C@H](C)O1` [DOXORUBICIN] stands 1.43 µM; under `c1ccc(Oc2ccc(-c3nc4ccccc4c4c3[nH]c3ccccc34)cc2)cc1`, 42.8 µM; under `CCc1ccc(-c2nc3ccccc3c3c2[nH]c2ccccc23)cc1`, 19 µM.
Still for that read-out and setting: next, `CC(C)c1nc2ccccc2c2c1[nH]c1ccccc12`: 18.2 µM; `Brc1ccc(-c2nc3ccccc3c3c2[nH]c2ccccc23)cc1`: 49.3 µM; `Cc1cn([C@H]2C[C@H](N=[N+]=[N-])[C@@H](CO)O2)c(=O)[nH]c1=O` [ZIDOVUDINE]: 65.5 µM.

A further assay deals with DU-145. Put plainly: Cytotoxicity against human DU145 cells after 48 hrs by SRB method. The conditions noted are these: DU-145, 48 h. The assay is classed as functional, cell-based.
With `FC(F)(F)c1ccc(-c2nc3ccccc3c3c2[nH]c2ccccc23)cc1`, 4.19 µM corresponded to half-maximal inhibition (IC50).
Same read-out and setting: next, `COc1cccc2c1C(=O)c1c(O)c3c(c(O)c1C2=O)C[C@@](O)(C(=O)CO)C[C@@H]3O[C@H]1C[C@H](N)[C@H](O)[C@H](C)O1` [DOXORUBICIN]: 3.11 µM; `c1ccc(Oc2ccc(-c3nc4ccccc4c4c3[nH]c3ccccc34)cc2)cc1`: 54 µM.
Still for that read-out and setting: under `CCc1ccc(-c2nc3ccccc3c3c2[nH]c2ccccc23)cc1` stands 46.2 µM; under `CC(C)c1nc2ccccc2c2c1[nH]c1ccccc12`, 43.9 µM.
The same measure, in the same setting: under `Brc1ccc(-c2nc3ccccc3c3c2[nH]c2ccccc23)cc1` stands 18.6 µM; under `Cc1cn([C@H]2C[C@H](N=[N+]=[N-])[C@@H](CO)O2)c(=O)[nH]c1=O` [ZIDOVUDINE], 34.5 µM.

A further assay relates to MCF7. Kind of assay: Cytotoxicity against human MCF7 cells after 48 hrs by SRB method. The assay is classed as functional, cell-based. The conditions noted are these: MCF7, 48 h.
For the compound `FC(F)(F)c1ccc(-c2nc3ccccc3c3c2[nH]c2ccccc23)cc1`, the half-maximal inhibitory concentration (IC50) worked out at 5.07 µM.
Still for that read-out and setting: next, `COc1cccc2c1C(=O)c1c(O)c3c(c(O)c1C2=O)C[C@@](O)(C(=O)CO)C[C@@H]3O[C@H]1C[C@H](N)[C@H](O)[C@H](C)O1` [DOXORUBICIN]: 2.31 µM; `c1ccc(Oc2ccc(-c3nc4ccccc4c4c3[nH]c3ccccc34)cc2)cc1`: 49.6 µM; `CCc1ccc(-c2nc3ccccc3c3c2[nH]c2ccccc23)cc1`: 9.84 µM.
For the compound `CC(C)c1nc2ccccc2c2c1[nH]c1ccccc12`, the IC50 was 20.2 µM.
Still for that read-out and setting: under `Brc1ccc(-c2nc3ccccc3c3c2[nH]c2ccccc23)cc1` stands 23.4 µM; under `Cc1cn([C@H]2C[C@H](N=[N+]=[N-])[C@@H](CO)O2)c(=O)[nH]c1=O` [ZIDOVUDINE], 35 µM.

The next assay relates to A549. Kind of assay: Cytotoxicity against human A549 cells after 48 hrs by SRB method. The conditions noted are these: A549, 48 h. The class given is functional, cell-based.
`FC(F)(F)c1ccc(-c2nc3ccccc3c3c2[nH]c2ccccc23)cc1`: the half-inhibitory concentration (IC50) was found to be 3.71 µM.
Consider `COc1cccc2c1C(=O)c1c(O)c3c(c(O)c1C2=O)C[C@@](O)(C(=O)CO)C[C@@H]3O[C@H]1C[C@H](N)[C@H](O)[C@H](C)O1` [DOXORUBICIN], for which it took 1.11 µM to reach half-maximal inhibition (IC50).
On the same count and under the same terms, next, `c1ccc(Oc2ccc(-c3nc4ccccc4c4c3[nH]c3ccccc34)cc2)cc1`: 13.2 µM; `CCc1ccc(-c2nc3ccccc3c3c2[nH]c2ccccc23)cc1`: 9.33 µM.
Same read-out and setting: under `CC(C)c1nc2ccccc2c2c1[nH]c1ccccc12` stands 18.1 µM; under `Brc1ccc(-c2nc3ccccc3c3c2[nH]c2ccccc23)cc1`, 17.1 µM.
`Cc1cn([C@H]2C[C@H](N=[N+]=[N-])[C@@H](CO)O2)c(=O)[nH]c1=O` [ZIDOVUDINE] showed a half-inhibitory concentration (IC50) of 16.2 µM.

The values above are taken from ChEMBL document CHEMBL3421548, “PMA-SiO2 catalyzed synthesis of indolo[2,3-c]quinolines as potent anti cancer agents” (Bioorg Med Chem Lett, 2015).
